Assay results: ChEMBL document CHEMBL1201862, “PubChem BioAssay data set” (2004)
Active and inactive are the calls of the source.

How the values were obtained:
INS1 = assay: INS-1E survival protection against cytokine death – cell-based, luminescence, retest, dose response (AID 449756); type: functional; conditions: Rattus norvegicus;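 also: cell death triggered by IL-1 beta plus TNF-alpha plus IFN-gamma mixture; protective hits raise ATP signal compared with cytokine alone wells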
[1] = decrease of insulin promoter-GFP reporter – imaging, high-content screening, mouse beta cells (AID 1628); type: functional; conditions: MIN6
[2] = biological target: E3 ubiquitin-protein ligase UHRF1 (Homo sapiens, UniProt Q96T88); assay: Counterscreen for inhibitors of 5-meCpG-binding domain protein 2 (MBD2): TRFRET-based biochemical high throughput dose response assay to identify inhibitors of binding of ubiquitin-like with PHD and ring finger domains 1 (UHRF1) to methylated oligonucleotide.
Chain of E3 ubiquitin-protein ligase UHRF1 (Q96T88 whole entry, the tested form may be a part): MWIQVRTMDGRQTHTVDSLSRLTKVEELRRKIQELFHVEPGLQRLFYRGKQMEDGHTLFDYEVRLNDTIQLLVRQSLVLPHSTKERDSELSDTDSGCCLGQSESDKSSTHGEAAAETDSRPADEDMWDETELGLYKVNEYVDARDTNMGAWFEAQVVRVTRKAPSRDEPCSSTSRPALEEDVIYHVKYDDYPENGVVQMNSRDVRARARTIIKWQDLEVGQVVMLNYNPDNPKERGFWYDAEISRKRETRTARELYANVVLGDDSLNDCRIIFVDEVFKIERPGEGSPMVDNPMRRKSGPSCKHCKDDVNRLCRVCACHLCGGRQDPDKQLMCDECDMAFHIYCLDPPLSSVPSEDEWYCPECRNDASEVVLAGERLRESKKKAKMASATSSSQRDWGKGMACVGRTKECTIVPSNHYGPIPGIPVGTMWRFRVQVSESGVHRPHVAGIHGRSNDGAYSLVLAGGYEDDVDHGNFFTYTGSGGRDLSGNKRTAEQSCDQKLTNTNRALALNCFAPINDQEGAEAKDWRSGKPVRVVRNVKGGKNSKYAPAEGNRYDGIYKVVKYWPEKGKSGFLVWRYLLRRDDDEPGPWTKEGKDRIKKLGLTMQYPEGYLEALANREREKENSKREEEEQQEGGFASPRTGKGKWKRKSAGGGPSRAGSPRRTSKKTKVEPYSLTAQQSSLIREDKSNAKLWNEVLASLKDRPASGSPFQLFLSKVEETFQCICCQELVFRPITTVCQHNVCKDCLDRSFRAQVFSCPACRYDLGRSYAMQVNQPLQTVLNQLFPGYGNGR

[3] = MIN6 cell viability loss – mouse insulinoma, cytotoxicity control, dose response (AID 2122); type: functional;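 also: confirmatory high-throughput counterscreen run to flag cytotoxic compounds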
[4] = reduced cellular PGC1a acetyl-lysine signal – cell-based, cherry-picked samples, dose response (AID 720514); type: functional;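 also: potency may reflect raised or lowered acetylation signal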
[5] = luciferase signal loss, tTA control fusion, HeLa F-luc tTA cells, dry powder, counter-screen for HIV Env fusion inhibitor project, dose response (AID 687021); type: functional, cell-based
[6] = inhibition of Env-driven cell fusion – HIV entry, plate reader, dry powder, dose response (AID 687023); type: functional, cell-based
[7] = viability loss in A549 lung cells – cell-based, 24 h, CellTiter-Glo luminescence, cherry-picks, cytotoxicity control, dose response (AID 1053115); type: functional; conditions: A549, 24 h
[8] = Late-stage results from the probe development effort to identify antagonists of arginine vasopressin receptor 1a (AVPR1a): fluorescence-based cell-based dose response AVPR1a inhibition assay.; type: functional
Vasopressin V2 receptor = Vasopressin V2 receptor (Homo sapiens, UniProt P30518); assay: Late-stage results from the probe development effort to identify antagonists of arginine vasopressin receptor 1a (AVPR1a): fluorescence-based cell-based dose response AVPR2 inhibition counterscreen assay.; type: functional
Chain of Vasopressin V2 receptor (P30518 whole entry): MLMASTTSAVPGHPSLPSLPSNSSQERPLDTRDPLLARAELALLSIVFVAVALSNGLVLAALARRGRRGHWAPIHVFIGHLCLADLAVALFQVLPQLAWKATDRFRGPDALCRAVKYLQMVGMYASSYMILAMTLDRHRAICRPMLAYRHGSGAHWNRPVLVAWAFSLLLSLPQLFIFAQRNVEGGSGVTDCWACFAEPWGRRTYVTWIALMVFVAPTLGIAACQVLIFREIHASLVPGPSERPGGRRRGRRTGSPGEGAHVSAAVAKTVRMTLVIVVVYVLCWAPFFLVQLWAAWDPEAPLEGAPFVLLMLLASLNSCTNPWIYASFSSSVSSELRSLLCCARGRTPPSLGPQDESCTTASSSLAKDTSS

[9] = Late-stage results from the probe development effort to identify antagonists of arginine vasopressin receptor 1a (AVPR1a): fluorescence-based cell-based dose response OXTR inhibition counterscreen assay.; type: functional
Vasopressin V1b receptor = Vasopressin V1b receptor (Homo sapiens, UniProt P47901); assay: Late-stage results from the probe development effort to identify antagonists of arginine vasopressin receptor 1a (AVPR1a): fluorescence-based cell-based dose response AVPR1b inhibition counterscreen assay.; type: functional
Chain of Vasopressin V1b receptor (P47901 whole entry): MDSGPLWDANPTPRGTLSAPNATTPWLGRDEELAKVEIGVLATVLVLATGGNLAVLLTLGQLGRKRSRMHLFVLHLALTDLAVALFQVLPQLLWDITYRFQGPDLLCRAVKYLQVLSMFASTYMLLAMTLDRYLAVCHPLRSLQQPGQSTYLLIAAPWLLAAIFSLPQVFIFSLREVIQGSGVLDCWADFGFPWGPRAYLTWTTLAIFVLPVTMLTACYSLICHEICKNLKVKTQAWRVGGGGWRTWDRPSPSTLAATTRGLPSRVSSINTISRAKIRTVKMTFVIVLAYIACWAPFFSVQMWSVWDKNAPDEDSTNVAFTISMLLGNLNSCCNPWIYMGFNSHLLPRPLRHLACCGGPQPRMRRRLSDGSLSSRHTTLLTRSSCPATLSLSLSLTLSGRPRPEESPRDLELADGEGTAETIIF

[O-][Cl+3]([O-])([O-])[O-].c1ccc(-c2cc(-c3ccccc3)[n+](-c3ccccc3)c(-c3ccccc3)c2)cc1
AC50 (INS1): 2.59 µM (active) | IC50 [1]: 1.06 µM (active) | IC50 [2]: 14.3 µM (inactive) | IC50 [3]: 1.77 µM (active)

CCOc1ccc(N2C(=O)Cc3ccccc3C2=O)cc1
AC50 [4]: 32.7 µM (active)

CCOc1ccc(S(=O)(=O)NCc2ccccn2)cc1
AC50 [5]: > 70 µM (inactive) | AC50 [6]: > 70 µM (inactive)

COc1ccccc1CN1CC[C@@H]2[C@H]1c1cc(C#Cc3ccccc3)ccc1N[C@@H]2CO
AC50 [7]: 46.8 µM (active)

O=C(C1CCN(c2ncccc2C(F)(F)F)CC1)N(CC1CC1)c1ccc(Cl)cc1
IC50 [8]: 0.084 µM (active) | IC50 (Vasopressin V2 receptor): 5.91 µM (active) | IC50 [9]: 0.8 µM (active) | IC50 (Vasopressin V1b receptor): 5.93 µM (active)
